From paper PMC7344947, “Phytochemicals and Enzyme Inhibitory Capacities of the Methanolic Extracts from the Italian Apple Cultivar Mela Rosa dei Monti Sibillini” (Pharmaceuticals, 2020) come the findings set out here.

The experiment addresses T1, α-Glucosidase from Saccharomyces cerevisiae (Saccharomyces cerevisiae, UniProt P53341).
T1 construct: purchased Sigma-Aldrich (Madrid, Spain)
Kind of experiment: α-Glucosidase inhibition assay (pNPG, absorbance 405 nm). Type of experiment: biochemical. The settings on record: 1 mg/mL. As for the experimental part: α-Glucosidase inhibition assay was performed following the previous method. Each 96-well microplate contained: 50 μL apple extract or the reference at different concentration and 100 μL of α-GLU (1U/mL) in phosphate buffer (pH 6.9). After 10 min, 50 μL of PNPG (50 μL) were added and incubated for 20 min at 37 °C. The absorbance was read at 405 nm. The percentage inhibition of α-glucosidase was calculated using the following formula:% inhibition = [(Abscontrol − AbsSample)/Abscontrol] × 100(1)

T1 sequence (P53341 whole entry): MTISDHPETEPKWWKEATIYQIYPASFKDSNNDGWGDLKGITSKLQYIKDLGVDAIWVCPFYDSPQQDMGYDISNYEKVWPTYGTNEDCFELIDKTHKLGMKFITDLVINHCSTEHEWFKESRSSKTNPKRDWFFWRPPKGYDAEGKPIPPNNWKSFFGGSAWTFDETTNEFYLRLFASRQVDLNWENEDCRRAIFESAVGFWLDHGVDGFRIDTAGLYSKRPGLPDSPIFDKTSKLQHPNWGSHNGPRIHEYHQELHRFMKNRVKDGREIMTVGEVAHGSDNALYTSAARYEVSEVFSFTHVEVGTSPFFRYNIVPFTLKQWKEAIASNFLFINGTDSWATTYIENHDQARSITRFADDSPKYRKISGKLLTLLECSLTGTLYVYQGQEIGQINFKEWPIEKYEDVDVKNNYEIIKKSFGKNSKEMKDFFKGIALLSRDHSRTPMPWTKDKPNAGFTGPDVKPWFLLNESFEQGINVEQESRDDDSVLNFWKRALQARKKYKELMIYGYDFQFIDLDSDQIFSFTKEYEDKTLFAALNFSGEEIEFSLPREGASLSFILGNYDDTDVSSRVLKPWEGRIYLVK

The compound `C[C@H]1O[C@H](O[C@H]2[C@H](O)[C@@H](O)[C@@H](O[C@H]3[C@H](O)[C@@H](O)C(O)O[C@@H]3CO)O[C@@H]2CO)[C@H](O)[C@@H](O)[C@@H]1N[C@H]1C=C(CO)[C@@H](O)[C@H](O)[C@H]1O` (stereo partly shown) [Acarbose] displayed an inhibition at 1000 µg/mL of 100%.

What is called inhibition is how much of the control response was suppressed. Lower therefore signals a response near the control.
